Values after ≈ are worked out from the molar mass of the structure shown.
Tests used:
[1] = test system: Penicillium citrinum; test: Antifungal activity against Penicillium citrinum; type: functional
[2] = test system: Escherichia coli; test: Antibacterial activity against Escherichia coli at 50 ug/mL; type: functional; settings: read-out: IZ
[3] = test system: Escherichia coli; test: Antibacterial activity against Escherichia coli at 100 ug/mL; type: functional; settings: read-out: IZ
[4] = test system: Aspergillus flavus; test: Antifungal activity against Aspergillus flavus; type: functional
[5] = test system: Salmonella typhi; test: Antibacterial activity against Salmonella typhi
[6] = test system: Bacillus subtilis; test: Antibacterial activity against Bacillus subtilis; type: functional
[7] = test system: Bacillus subtilis; test: Antibacterial activity against Bacillus subtilis at 50 ug/mL; type: functional; settings: read-out: IZ
[8] = test system: Salmonella typhi; test: Antibacterial activity against Salmonella typhi at 100 ug/mL; settings: read-out: IZ
[9] = test system: Penicillium citrinum; test: Antifungal activity against Penicillium citrinum at 50 ug/mL; type: functional; settings: read-out: IZ
[10] = test system: Aspergillus flavus; test: Antifungal activity against Aspergillus flavus at 50 ug/mL; type: functional; settings: read-out: IZ
[11] = test system: Escherichia coli; test: Antibacterial activity against Escherichia coli; type: functional
[12] = test system: Penicillium citrinum; test: Antifungal activity against Penicillium citrinum at 100 ug/mL; type: functional; settings: read-out: IZ
[13] = test system: Bacillus subtilis; test: Antibacterial activity against Bacillus subtilis at 100 ug/mL; type: functional; settings: read-out: IZ
[14] = test system: Fusarium oxysporum; test: Antifungal activity against Fusarium oxysporum at 100 ug/mL; type: functional; settings: read-out: IZ
[15] = test system: Fusarium oxysporum; test: Antifungal activity against Fusarium oxysporum at 50 ug/mL; type: functional; settings: read-out: IZ
[16] = test system: Salmonella typhi; test: Antibacterial activity against Salmonella typhi at 50 ug/mL; settings: read-out: IZ
[17] = test system: Fusarium oxysporum; test: Antifungal activity against Fusarium oxysporum; type: functional
[18] = test system: Aspergillus flavus; test: Antifungal activity against Aspergillus flavus at 100 ug/mL; type: functional; settings: read-out: IZ

Compound	MIC [1]	MIC [4]	MIC [5]	MIC [6]	MIC [11]	MIC [17]	zone of inhibition at 50 µg/mL [2]	zone of inhibition at 100 µg/mL [3]	zone of inhibition at 50 µg/mL [7]	zone of inhibition at 100 µg/mL [8]	zone of inhibition at 50 µg/mL [9]	zone of inhibition at 50 µg/mL [10]	zone of inhibition at 100 µg/mL [12]	zone of inhibition at 100 µg/mL [13]	zone of inhibition at 100 µg/mL [14]	zone of inhibition at 50 µg/mL [15]	zone of inhibition at 50 µg/mL [16]	zone of inhibition at 100 µg/mL [18]
O=C(Cn1ncc2cc([N+](=O)[O-])ccc21)NN1C(=O)CSC1c1cccc([N+](=O)[O-])c1 (configuration not stated)	14 µg/mL (≈ 31.6 µM)	11 µg/mL (≈ 24.9 µM)	12 µg/mL (≈ 27.1 µM)	15 µg/mL (≈ 33.9 µM)	10 µg/mL (≈ 22.6 µM)	8 µg/mL (≈ 18.1 µM)	24.6 mm	28 mm	21 mm	25.8 mm	22.3 mm	24.7 mm	26.5 mm	26.1 mm	28.4 mm	25.1 mm	22 mm	27 mm
O=C(Cn1ncc2cc([N+](=O)[O-])ccc21)N/N=C/c1ccccc1Cl	22 µg/mL (≈ 61.5 µM)	17 µg/mL (≈ 47.5 µM)	17 µg/mL (≈ 47.5 µM)	20 µg/mL (≈ 55.9 µM)	16 µg/mL (≈ 44.7 µM)	13 µg/mL (≈ 36.3 µM)	18.2 mm	21 mm	16 mm	21 mm	15.8 mm	19 mm	20.5 mm	19.4 mm	22 mm	20.1 mm	16.9 mm	22 mm
CN(C)c1ccc(/C=N/NC(=O)Cn2ncc3cc([N+](=O)[O-])ccc32)cc1	36 µg/mL (≈ 98.3 µM)	27 µg/mL (≈ 73.7 µM)	32 µg/mL (≈ 87.3 µM)	41 µg/mL (≈ 112 µM)	30 µg/mL (≈ 81.9 µM)	23 µg/mL (≈ 62.8 µM)	10.6 mm	12.5 mm	7.5 mm	12 mm	8.2 mm	9.5 mm	11.5 mm	11 mm	13.8 mm	11.4 mm	8.6 mm	12.4 mm
COC1=CC(=O)C[C@@H](C)[C@]12Oc1c(Cl)c(OC)cc(OC)c1C2=O [GRISEOFULVIN]	11 µg/mL (≈ 31.2 µM)	9 µg/mL (≈ 25.5 µM)	–	–	–	6 µg/mL (≈ 17 µM)	–	–	–	–	25 mm	27 mm	28 mm	–	32 mm	28 mm	–	30 mm
O=C(Cn1ncc2cc([N+](=O)[O-])ccc21)N/N=C/c1ccccc1	30 µg/mL (≈ 92.8 µM)	20 µg/mL (≈ 61.9 µM)	22 µg/mL (≈ 68 µM)	30 µg/mL (≈ 92.8 µM)	22 µg/mL (≈ 68 µM)	17 µg/mL (≈ 52.6 µM)	14 mm	16.4 mm	11.5 mm	16 mm	11.5 mm	13.6 mm	15.5 mm	14.8 mm	17.4 mm	15 mm	12.7 mm	16.7 mm
O=C(Cn1ncc2cc([N+](=O)[O-])ccc21)N/N=C/c1ccccc1Br	28 µg/mL (≈ 69.6 µM)	19 µg/mL (≈ 47.2 µM)	18 µg/mL (≈ 44.8 µM)	22 µg/mL (≈ 54.7 µM)	18 µg/mL (≈ 44.8 µM)	15 µg/mL (≈ 37.3 µM)	16.8 mm	19.4 mm	14 mm	19 mm	13.3 mm	16.4 mm	18 mm	17.4 mm	19.8 mm	17.8 mm	15 mm	19.4 mm
Cc1ccc(/C=N/NC(=O)Cn2ncc3cc([N+](=O)[O-])ccc32)cc1	38 µg/mL (≈ 113 µM)	30 µg/mL (≈ 88.9 µM)	34 µg/mL (≈ 101 µM)	42 µg/mL (≈ 125 µM)	31 µg/mL (≈ 91.9 µM)	25 µg/mL (≈ 74.1 µM)	9 mm	11 mm	6 mm	10 mm	7.1 mm	8 mm	10 mm	9 mm	12.6 mm	10.8 mm	7 mm	11 mm
O=C(Cn1ncc2cc([N+](=O)[O-])ccc21)N/N=C/c1ccc(Cl)cc1	20 µg/mL (≈ 55.9 µM)	17 µg/mL (≈ 47.5 µM)	17 µg/mL (≈ 47.5 µM)	18 µg/mL (≈ 50.3 µM)	17 µg/mL (≈ 47.5 µM)	13 µg/mL (≈ 36.3 µM)	19 mm	21.9 mm	16.8 mm	21.7 mm	16.8 mm	20 mm	21.4 mm	20.1 mm	22.9 mm	20.8 mm	18 mm	22.7 mm
CN[C@@H]1[C@H](O[C@H]2[C@H](O[C@H]3[C@H](O)[C@@H](O)[C@H](N=C(N)N)[C@@H](O)[C@@H]3N=C(N)N)O[C@@H](C)[C@]2(O)C=O)O[C@@H](CO)[C@H](O)[C@H]1O [STREPTOMYCIN]	–	–	10 µg/mL (≈ 17.2 µM)	12 µg/mL (≈ 20.6 µM)	8 µg/mL (≈ 13.8 µM)	–	26 mm	30 mm	23 mm	28 mm	–	–	–	27 mm	–	–	25 mm	–

Continued, in another order:

MIC [1]	MIC [4]	MIC [5]	MIC [6]	MIC [11]	MIC [17]	Compound	zone of inhibition at 50 µg/mL [2]	zone of inhibition at 100 µg/mL [3]	zone of inhibition at 50 µg/mL [7]	zone of inhibition at 100 µg/mL [8]	zone of inhibition at 50 µg/mL [9]	zone of inhibition at 50 µg/mL [10]	zone of inhibition at 100 µg/mL [12]	zone of inhibition at 100 µg/mL [13]	zone of inhibition at 100 µg/mL [14]	zone of inhibition at 50 µg/mL [15]	zone of inhibition at 50 µg/mL [16]	zone of inhibition at 100 µg/mL [18]
17 µg/mL (≈ 39.4 µM)	14 µg/mL (≈ 32.4 µM)	15 µg/mL (≈ 34.7 µM)	17 µg/mL (≈ 39.4 µM)	13 µg/mL (≈ 30.1 µM)	11 µg/mL (≈ 25.5 µM)	O=C(Cn1ncc2cc([N+](=O)[O-])ccc21)NN1C(=O)CSC1c1ccccc1Cl (configuration not stated)	21.4 mm	24.5 mm	18 mm	23 mm	19.4 mm	21.3 mm	23.5 mm	22.6 mm	25 mm	22 mm	19.2 mm	24 mm
22 µg/mL (≈ 53.2 µM)	18 µg/mL (≈ 43.5 µM)	17 µg/mL (≈ 41.1 µM)	21 µg/mL (≈ 50.8 µM)	16 µg/mL (≈ 38.7 µM)	15 µg/mL (≈ 36.3 µM)	O=C(Cn1ncc2cc([N+](=O)[O-])ccc21)NN1C(=O)CSC1c1ccccc1O (configuration not stated)	18.4 mm	20.5 mm	14.7 mm	19.9 mm	16 mm	17.3 mm	19.7 mm	18.9 mm	21.4 mm	18.5 mm	16 mm	20.4 mm
28 µg/mL (≈ 65.5 µM)	20 µg/mL (≈ 46.8 µM)	22 µg/mL (≈ 51.5 µM)	30 µg/mL (≈ 70.2 µM)	20 µg/mL (≈ 46.8 µM)	17 µg/mL (≈ 39.8 µM)	COc1ccccc1C1SCC(=O)N1NC(=O)Cn1ncc2cc([N+](=O)[O-])ccc21 (configuration not stated)	14.8 mm	17.2 mm	11.5 mm	16.1 mm	12.5 mm	13.9 mm	16 mm	15 mm	18 mm	15 mm	13 mm	16.8 mm
20 µg/mL (≈ 42 µM)	17 µg/mL (≈ 35.7 µM)	17 µg/mL (≈ 35.7 µM)	18 µg/mL (≈ 37.8 µM)	15 µg/mL (≈ 31.5 µM)	13 µg/mL (≈ 27.3 µM)	O=C(Cn1ncc2cc([N+](=O)[O-])ccc21)NN1C(=O)CSC1c1cccc(Br)c1 (configuration not stated)	20.2 mm	23 mm	16.9 mm	21.9 mm	18 mm	20 mm	22 mm	21.4 mm	23.7 mm	20.8 mm	18 mm	22.8 mm
15 µg/mL (≈ 33.9 µM)	11 µg/mL (≈ 24.9 µM)	13 µg/mL (≈ 29.4 µM)	15 µg/mL (≈ 33.9 µM)	11 µg/mL (≈ 24.9 µM)	9 µg/mL (≈ 20.3 µM)	O=C(Cn1ncc2cc([N+](=O)[O-])ccc21)NN1C(=O)CSC1c1ccccc1[N+](=O)[O-] (configuration not stated)	23.5 mm	26.9 mm	20 mm	25 mm	21.4 mm	23.6 mm	25.6 mm	25.5 mm	27 mm	24.2 mm	21.2 mm	26.1 mm
17 µg/mL (≈ 39.4 µM)	13 µg/mL (≈ 30.1 µM)	15 µg/mL (≈ 34.7 µM)	16 µg/mL (≈ 37 µM)	13 µg/mL (≈ 30.1 µM)	11 µg/mL (≈ 25.5 µM)	O=C(Cn1ncc2cc([N+](=O)[O-])ccc21)NN1C(=O)CSC1c1ccc(Cl)cc1 (configuration not stated)	22.3 mm	25.6 mm	18.8 mm	23.9 mm	20.2 mm	22.3 mm	24.4 mm	23.7 mm	25.8 mm	22.9 mm	20 mm	25 mm
